Source: ChEMBL document CHEMBL4308906, “Design and synthesis of selective CYP1B1 inhibitor via dearomatization of α-naphthoflavone” (Bioorg Med Chem, 2019)
Converted amounts (≈) assume the structure as drawn.

Legend:
[1] = molecular target: T1, Cytochrome P450 1B1 (Homo sapiens, UniProt Q16678); test: Binding affinity to human C-terminal 4His-tagged CYP1B1 expressed in Escherichia coli DH5alpha assessed as spectral dissociation constant by spectrophotometric analysis; conditions: read-out: Ks
T1 sequence (Q16678 whole entry): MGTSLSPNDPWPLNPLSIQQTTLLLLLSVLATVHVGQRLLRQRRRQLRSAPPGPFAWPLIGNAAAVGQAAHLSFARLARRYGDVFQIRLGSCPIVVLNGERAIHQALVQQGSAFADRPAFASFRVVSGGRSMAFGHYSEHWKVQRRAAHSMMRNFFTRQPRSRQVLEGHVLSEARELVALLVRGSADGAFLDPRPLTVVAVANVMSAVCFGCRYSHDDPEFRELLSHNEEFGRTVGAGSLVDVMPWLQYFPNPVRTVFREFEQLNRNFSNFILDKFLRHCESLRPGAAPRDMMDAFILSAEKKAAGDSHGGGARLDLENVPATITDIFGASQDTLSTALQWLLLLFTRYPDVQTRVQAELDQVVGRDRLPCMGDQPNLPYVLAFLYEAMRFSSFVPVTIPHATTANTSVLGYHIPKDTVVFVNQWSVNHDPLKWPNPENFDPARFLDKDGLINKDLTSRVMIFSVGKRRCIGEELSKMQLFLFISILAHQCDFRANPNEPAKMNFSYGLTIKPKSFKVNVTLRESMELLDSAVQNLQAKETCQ

[2] = molecular target: T2, Cytochrome P450 1A2 (Homo sapiens, UniProt P05177); test: Inhibition of human recombinant CYP1A2 using 7-ethoxyresorufin as substrate after 30 mins in presence of NADPH by EROD assay; type: ADME
T2 sequence (P05177 whole entry): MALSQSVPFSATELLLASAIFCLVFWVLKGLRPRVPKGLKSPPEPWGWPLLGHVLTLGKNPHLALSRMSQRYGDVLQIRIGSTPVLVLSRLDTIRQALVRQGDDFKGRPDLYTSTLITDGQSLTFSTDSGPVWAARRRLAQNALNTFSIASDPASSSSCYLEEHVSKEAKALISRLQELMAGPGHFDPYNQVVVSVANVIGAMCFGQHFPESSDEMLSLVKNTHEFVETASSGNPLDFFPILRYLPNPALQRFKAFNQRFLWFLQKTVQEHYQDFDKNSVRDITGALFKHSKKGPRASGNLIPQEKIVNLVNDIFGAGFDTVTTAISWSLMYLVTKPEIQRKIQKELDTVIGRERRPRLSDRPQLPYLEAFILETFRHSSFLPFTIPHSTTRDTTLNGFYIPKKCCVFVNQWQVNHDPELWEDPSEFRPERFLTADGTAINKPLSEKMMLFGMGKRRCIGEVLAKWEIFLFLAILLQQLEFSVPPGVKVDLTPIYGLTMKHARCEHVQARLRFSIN

[3] = molecular target: T1, Cytochrome P450 1B1; test: Inhibition of human recombinant CYP1B1 using 7-ethoxyresorufin as substrate after 30 mins in presence of NADPH by EROD assay
[4] = molecular target: T1, Cytochrome P450 1B1; test: Inhibition of human recombinant CYP1B1 using 7-ethoxyresorufin as substrate assessed as percent enzyme activity at 1 uM after 30 mins in presence of NADPH by EROD assay relative to control; set-up: scale not given: the % may be the effect or the level left; conditions: read-out: Activity
[5] = molecular target: T3, CYP1A1 (Homo sapiens, UniProt P04798); test: Inhibition of human recombinant CYP1A1 using 7-ethoxyresorufin as substrate assessed as percent enzyme activity at 1 uM after 15 mins in presence of NADPH by EROD assay relative to control; type: ADME; set-up: scale not given: the % may be the effect or the level left; conditions: recombinant CYP1A1, probe 7-ethoxyresorufin, read-out: Activity
T3 sequence (P04798 whole entry): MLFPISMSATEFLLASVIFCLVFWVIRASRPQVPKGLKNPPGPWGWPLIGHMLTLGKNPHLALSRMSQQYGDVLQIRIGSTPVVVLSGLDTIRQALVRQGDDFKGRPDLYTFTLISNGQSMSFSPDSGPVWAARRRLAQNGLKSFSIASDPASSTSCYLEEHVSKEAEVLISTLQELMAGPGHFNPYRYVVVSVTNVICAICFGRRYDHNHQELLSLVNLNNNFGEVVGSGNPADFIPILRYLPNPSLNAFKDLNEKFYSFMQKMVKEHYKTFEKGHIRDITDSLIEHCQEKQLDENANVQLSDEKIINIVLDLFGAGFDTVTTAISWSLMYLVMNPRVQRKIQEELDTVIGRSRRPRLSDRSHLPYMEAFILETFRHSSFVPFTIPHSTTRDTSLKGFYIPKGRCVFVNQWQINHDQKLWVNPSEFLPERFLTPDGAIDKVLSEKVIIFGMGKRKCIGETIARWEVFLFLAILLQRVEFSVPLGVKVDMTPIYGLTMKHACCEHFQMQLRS

[6] = species: Homo sapiens; test: Selectivity ratio of IC50 for human recombinant CYP1A2 to IC50 for human recombinant CYP1B1
[7] = molecular target: T4, Cytochrome P450 1A1 (Homo sapiens, UniProt P04798); test: Inhibition of human recombinant CYP1A1 using 7-ethoxyresorufin as substrate after 15 mins in presence of NADPH by EROD assay; type: ADME
T4 sequence (P04798 whole entry): T3 sequence (P04798 whole entry)

[8] = species: Homo sapiens; test: Selectivity ratio of IC50 for human recombinant CYP1A1 to IC50 for human recombinant CYP1B1
[9] = molecular target: T5, CYP1A2 (Homo sapiens, UniProt P05177); test: Inhibition of human recombinant CYP1A2 using 7-ethoxyresorufin as substrate assessed as percent enzyme activity at 1 uM after 30 mins in presence of NADPH by EROD assay relative to control; type: ADME; set-up: scale not given: the % may be the effect or the level left; conditions: recombinant CYP1A2, probe 7-ethoxyresorufin, read-out: Activity
T5 sequence (P05177 whole entry): T2 sequence (P05177 whole entry)

[10] = Aqueous solubility of compound in 9:1 PBS/ethanol buffer by shake flask method; type: physicochemical
[11] = Solubility of compound in pH 7.4 PBS by shake flask met; type: physicochemical; conditions: buffer

Kd [1] [nM]	IC50 [2] [nM]	IC50 [3] [nM]	activity at 0.5 h, 1 µM [4] [%]	activity at 0.25 h, 1 µM [5] [%]	Ratio IC50 [6]	IC50 [7] [nM]	Ratio IC50 [8]	activity at 0.5 h, 1 µM [9] [%]	solubility thermodynamic [10] [µM]	solubility [11]	SMILES
6700	991	29.4	-4.7	1.1	33.7	15.9	0.54	45.4	–	–	CC(=O)S[C@H]1CC[C@H](c2cc(=O)c3ccc4ccccc4c3o2)CC1
8900	689	40.3	1.8	1.3	17.1	146	3.6	0.6	–	–	O=c1cc([C@H]2CC[C@H](S)CC2)oc2c1ccc1ccccc12
25400	–	68.1	3.1	5.5	–	33	0.48	4.3	–	–	C=C=C[C@H]1CC[C@@H](c2cc(=O)c3ccc4ccccc4c3o2)CC1
5400	1190	135	-1.8	39.5	8.8	1040	7.7	46.5	–	–	[N-]=[N+]=N[C@H]1CC[C@H](c2cc(=O)c3ccc4ccccc4c3o2)CC1
2600	667	4.4	-15.3	39.6	153	525	120	29.6	2.67 (≈ 0.853 µg/mL)	–	[N-]=[N+]=N[C@H]1CC[C@@H](c2cc(=O)c3ccc4ccccc4c3o2)CC1
2400	36.4	13.4	-0.4	3	2.7	13.6	1.02	-4.5	–	–	C=C=C[C@H]1CC[C@H](c2cc(=O)c3ccc4ccccc4c3o2)CC1

Second part, the compound before the results:

SMILES	Kd [1] [nM]	IC50 [2] [nM]	IC50 [3] [nM]	activity at 0.5 h, 1 µM [4] [%]	activity at 0.25 h, 1 µM [5] [%]	Ratio IC50 [6]	IC50 [7] [nM]	Ratio IC50 [8]	activity at 0.5 h, 1 µM [9] [%]	solubility thermodynamic [10] [µM]	solubility [11]
[N-]=[N+]=NCC1CCC(c2cc(=O)c3ccc4ccccc4c3o2)CC1 (mixture of isomers)	3900	433	23.5	2.2	6.3	18.5	216	9.2	22.3	–	–
CC(=O)S[C@H]1CC[C@@H](c2cc(=O)c3ccc4ccccc4c3o2)CC1	4000	–	24.3	-1.3	3.8	–	65	2.7	42.7	–	–
O=c1cc(-c2ccccc2)oc2c1ccc1ccccc12 [ALPHA-NAPHTHOFLAVONE]	–	–	–	-11.3	0.4	–	53.8	–	-10.1	2.63 (≈ 0.716 µg/mL)	Insoluble
O=c1cc(-c2ccc(O)cc2)oc2c1ccc1ccccc12	–	909	43.4	3.7	6.3	21	43	0.99	10.4	–	–
[N-]=[N+]=Nc1cccc(-c2cc(=O)c3ccc4ccccc4c3o2)c1	800	74.7	1.8	0.7	1.4	42.8	27.1	15.5	6.9	–	–
[N-]=[N+]=Nc1ccc(-c2cc(=O)c3ccc4ccccc4c3o2)cc1	900	93.8	2.6	-0.5	2.3	35.6	9.5	3.6	-13.6	< 1	–
O=c1cc(C2CCCCC2)oc2c1ccc1ccccc12	5900	–	540	25.4	51.5	–	–	–	51.8	9.65 (≈ 2.69 µg/mL)	–
